The record followed here is patent US20030109563A1, “Nematicidal trifluorobutenes” (priority 2000, published 2003).

The structures appear in SMILES notation.

The test system of this experiment is Meloidogyne incognita. Briefly: Test against Meloidogyne spp. (soil pot test). In kind it is in vivo. The note with it: 672 h; 10 ppm in soil contaminated by Meloidogyne incognita; tomato (Kurihara), greenhouse 4 weeks; from root knot index; read-out: controlling effect. As for the experimental part: Test Against Meloidogyne spp. (Soil Pot Test)
Preparation of Test Agent:
1 Part of the active compound is impregnated to 99 parts of pumice to make fine granules.
A compound of the formula (I) was added to the soil contaminated by Meloidogyne incognita so that the chemical concentration would be 10 ppm and homogeneously mixed by stirring. A pot ( 1/5000 are) was filled with the soil. About 20 seeds of tomato (variety: Kurihara) were sown per pot. After cultivation in a greenhouse for 4 weeks, they were carefully pulled out not to damage the roots and the root knot index and the controlling effect were determined as follows.
1: A few knots were formed
2: Knots were formed to a medium extent
3: Knots were formed to an intense extent
4: Knots were formed to the most intense extent (corresponds to non-treatment). [formula]
Evaluation of the ability of the tested compounds to control the nematodes was done according to the values obtained for the controlling effect and with the following standards. […]
a: Controlling effect 100-71% b: Controlling effect 70-50% c: Controlling effect less than 50%
Regarding `FC(F)=C(F)CCSc1ncco1` [Compound 1, 2-(3,4,4-trifluoro-3-butenylthio)oxazole], the pest or weed control at 10 ppm fell in the range of 71 to 100%. The value for `[O-][S+](CCC(F)=C(F)F)c1ncco1` (centres unmarked) [Compound 2, 2-(3,4,4-trifluoro-3-butenylsulfinyl)oxazole] was 71 to 100%; that for `O=S(=O)(CCC(F)=C(F)F)c1ncco1` [Compound 3, 2-(3,4,4-trifluoro-3-butenylsulfonyl)oxazole] was 71 to 100%.

For the compound `FC(F)=C(F)CCSc1ncc(Cl)o1` [Compound 4, 5-chloro-2-(3,4,4-trifluoro-3-butenylthio)oxazole], the pest or weed control at 10 ppm fell in the range of 71 to 100%. The value for `FC(F)=C(F)CCSc1nc(CBr)c(Br)o1` [Compound 39, 5-bromo-4-bromomethyl-2-(3,4,4-trifluoro-3-butenylthio)oxazole] was 71 to 100%; that for `COCc1cnc(SCCC(F)=C(F)F)o1` [Compound 46, 5-methoxymethyl-2-(3,4,4-trifluoro-3-butenylthio)oxazole] was 71 to 100%; that for `FC(F)=C(F)CCSc1nc(Cl)co1` [Compound 52, 4-chloro-2-(3,4,4-trifluoro-3-butenylthio)oxazole] was 71 to 100%. Turning to `OCc1coc(SCCC(F)=C(F)F)n1` [Compound 75, 4-hydroxymethyl-2-(3,4,4-trifluoro-3-butenylthio)oxazole], the pest or weed control at 10 ppm lay in the range of 71 to 100%. `COCc1coc(SCCC(F)=C(F)F)n1` [Compound 78, 4-methoxymethyl-2-(3,4,4-trifluoro-3-butenylthio)oxazole]: the pest or weed control at 10 ppm is 71 to 100%. The value for `CSCc1coc(SCCC(F)=C(F)F)n1` [Compound 86, 4-methylthiomethyl-2-(3,4,4-trifluoro-3-butenylthio)oxazole] was 71 to 100%; that for `CS(=O)(=O)Oc1coc(SCCC(F)=C(F)F)n1` [Compound 127, 4-methylsulfonyloxy-2-(3,4,4-trifluoro-3-butenylthio)oxazole] was 71 to 100%.
